# From PMC12881670, “Investigation into ligand selectivity and bias at the formyl peptide receptor family” (The Journal of Pharmacology and Experimental Therapeutics, 2025)
# Entries after “also recorded” stand apart in the source; their conditions may differ. Read-outs that look alike come from different tables or passages of the source. Where a SMILES comes first, the peptide text is derived from it. Where no end group is shown, it is not given here. The star is where a group is joined. For = O=C*
# What was measured:
# Type in all cases: cell-based
# Hs_FPR2 [1] = target: T1, Hs_FPR2 (Homo sapiens, UniProt P25090); experiment: BRET receptor-RLuc8 interaction with Venus-mGsi; settings: for Log EC50 (M): log of EC50, HEK293 transient, 10 min; for Log EC50 (M) / Emax (%): mGsi BRET, mean, ND = no interaction detected; for Emax (%): % of response to 1 μM WKYMVm
# T1 construct: expressed in transfected cells
# T1 sequence (P25090 1-351): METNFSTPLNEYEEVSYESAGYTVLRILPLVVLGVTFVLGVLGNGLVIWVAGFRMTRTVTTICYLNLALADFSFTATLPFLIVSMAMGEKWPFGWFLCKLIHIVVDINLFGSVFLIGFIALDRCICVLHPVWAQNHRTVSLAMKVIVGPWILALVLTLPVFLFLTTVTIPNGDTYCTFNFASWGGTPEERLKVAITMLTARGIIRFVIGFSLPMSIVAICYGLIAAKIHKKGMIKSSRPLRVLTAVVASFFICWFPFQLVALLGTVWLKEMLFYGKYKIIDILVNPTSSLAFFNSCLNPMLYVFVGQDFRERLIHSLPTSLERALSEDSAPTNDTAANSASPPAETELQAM
# Method in brief: (§1)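 Receptor-RLuc8 and acceptor plasmids (Venus-mGsi or YFP-Arrestin 3, 1:4) are transfected; cells are replated after 24 h and grown 24–48 h more. Wells are equilibrated 30 min in HBSS, given coelenterazine h (5 μM final), dosed with compound 5 min later and held 10 min at 37 °C before the BRET read.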
# Hs_FPR2 [2] = target: T1, Hs_FPR2; experiment: BRET receptor-RLuc8 interaction with Arrestin 3-YFP; settings: for Emax (%) / Log EC50 (M): Arrestin 3 BRET, mean, ND = no interaction detected; for Emax (%): % of response to 1 μM WKYMVm; for Log EC50 (M): log of EC50, HEK293 transient, 10 min
# Method in brief: as §1
# Hs_FPR1 = target: T2, Hs_FPR1 (Homo sapiens, UniProt P21462); experiment: Internalization of FLAG-tagged receptors by flow cytometry; parameters: Emax: dose or concentration left out as unconfirmed; settings: for agonist-induced internalization (words): Hs_FPR1, 30 min, relative to 1 μM WKYMVm; for Emax: read-out: Emax (%), internalization, Mean
# T2 construct: expressed in transfected cells
# T2 sequence (P21462 1-350): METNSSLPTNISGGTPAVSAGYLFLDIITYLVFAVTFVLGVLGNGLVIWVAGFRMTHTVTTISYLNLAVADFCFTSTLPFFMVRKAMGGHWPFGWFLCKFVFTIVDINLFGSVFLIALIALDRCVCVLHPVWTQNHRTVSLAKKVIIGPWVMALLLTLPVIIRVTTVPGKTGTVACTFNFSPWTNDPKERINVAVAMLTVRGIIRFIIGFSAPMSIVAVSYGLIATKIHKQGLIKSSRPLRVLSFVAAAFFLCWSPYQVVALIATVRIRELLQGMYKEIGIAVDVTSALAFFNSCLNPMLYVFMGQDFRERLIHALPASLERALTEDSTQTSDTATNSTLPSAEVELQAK
# Experimental: (§2) Internalization of FPRs was measured by flow cytometry.[30] Briefly, cells were incubated with Alexa Fluor 657 conjugated M1 antiflag antibody (Sigma-Aldrich Cat# F3040, RRID:AB_439712) for 30 minutes at 37 °C to label surface receptors. Cells were then incubated with the indicated concentration of ligand before washing in PBS/0.04% EDTA to remove any remaining surface antibody. Remaining fluorescence was then measured using flow cytometry on either a BD FACScalibur or Attune, recording 5000 gated events. […] As a control, some samples were left untreated, and “strip only” was measured as a readout of constitutive endocytosis, and this value was subtracted from the data.
# (§3) All data were analyzed using GraphPad Prism using the nonlinear regression log(agonist) versus response (3 parameters) function for all assays, except binding, which was analyzed using the One site-FitlogIC50 function. Bias calculations were carried out following IUPHAR guidelines as described,[27]^,[37] and data were presented as the Δ Activity ratio (Log[EmaxB/EC50B])-(Log[EmaxA/EC50A]).
# Hs_FPR2 [3] = target: T1, Hs_FPR2; experiment: as above; parameters: Emax: dose or concentration left out as unconfirmed; settings: for Emax (%), internalization, Mean: % of internalization to WKYMVm (1 mM in legend, 1 μM in text), Hs_FPR2, 30 minutes; for Emax (%), internalization, Mean / Log EC50 (M), internalization, Mean: ND denotes no internalization measured; for agonist-induced internalization (words): Hs_FPR2, 30 min, relative to 1 μM WKYMVm; for Log EC50 (M), internalization, Mean: HEK293 stably expressing FLAG-Hs_FPR2, ligand 30 minutes
# Experimental: as §2, §3
# Mm_Fpr1 = target: T3, Mm_Fpr1 (Mus musculus, UniProt P33766); experiment: as above; parameters: Emax: dose or concentration left out as unconfirmed; settings: for agonist-induced internalization (words): Mm_Fpr1, 30 min, relative to 1 μM WKYMVm
# T3 construct: expressed in transfected cells
# T3 sequence (P33766 1-364): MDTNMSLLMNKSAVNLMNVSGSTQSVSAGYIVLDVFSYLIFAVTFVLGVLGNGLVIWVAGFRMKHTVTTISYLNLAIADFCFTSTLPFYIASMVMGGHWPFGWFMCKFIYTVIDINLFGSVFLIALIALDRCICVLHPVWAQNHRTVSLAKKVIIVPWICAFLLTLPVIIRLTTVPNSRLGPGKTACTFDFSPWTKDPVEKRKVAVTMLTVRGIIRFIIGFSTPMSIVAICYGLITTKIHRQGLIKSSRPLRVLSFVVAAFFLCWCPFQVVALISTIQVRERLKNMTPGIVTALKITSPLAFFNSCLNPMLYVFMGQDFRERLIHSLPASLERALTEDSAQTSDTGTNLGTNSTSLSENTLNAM
# Method in brief: (§4)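 Surface FLAG-receptors labelled with Alexa Fluor-conjugated M1 anti-FLAG for 30 min at 37 °C, then exposed to ligand; surface antibody stripped with PBS/0.04% EDTA and internalised fluorescence read by flow cytometry (5000 events), constitutive endocytosis subtracted. Curves fitted by log(agonist) vs response, 3 parameters.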
# Mm_Fpr2 = target: T4, Mm_Fpr2 (Mus musculus, UniProt O88536); experiment: as above; parameters: Emax: dose or concentration left out as unconfirmed; settings: for Emax (%), internalization, Mean: % of internalization to WKYMVm (1 mM in legend, 1 μM in text), Mm_Fpr2, 30 minutes; for Log EC50 (M), internalization, Mean: HEK293 stably expressing FLAG-Mm_Fpr2, ligand 30 minutes; for agonist-induced internalization (words): Mm_Fpr2, 30 min, relative to 1 μM WKYMVm
# T4 construct: expressed in transfected cells
# T4 sequence (O88536 1-351): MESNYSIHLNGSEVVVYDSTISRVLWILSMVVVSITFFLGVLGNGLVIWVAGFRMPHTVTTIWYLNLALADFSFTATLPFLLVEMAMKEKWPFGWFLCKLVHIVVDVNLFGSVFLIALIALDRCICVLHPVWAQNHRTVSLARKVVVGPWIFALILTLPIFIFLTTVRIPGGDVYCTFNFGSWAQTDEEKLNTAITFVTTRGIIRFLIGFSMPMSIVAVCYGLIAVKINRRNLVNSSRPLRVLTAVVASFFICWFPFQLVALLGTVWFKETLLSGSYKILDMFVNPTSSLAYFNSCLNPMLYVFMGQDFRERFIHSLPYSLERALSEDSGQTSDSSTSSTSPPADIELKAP
# Method in brief: as §4
# [4] = Hs_FPR2-Rluc8 donor, Arrestin 3-YFP acceptor, read-out: EC50 arrestin recruitment, BRET
# [5] = read-out: Log EC50 (M), internalization, Mean (converted)
Molecule,Log EC50 (M) (Hs_FPR2 [1]),Emax (%) (Hs_FPR2 [1]),Emax (%) (Hs_FPR2 [2]),EC50 (Hs_FPR2 [2]; [4]) [nM],Log EC50 (M) (Hs_FPR2 [2]),agonist-induced internalization (words) (Hs_FPR1),"Emax (%), internalization, Mean (Hs_FPR2 [3]) [%]",agonist-induced internalization (words) (Hs_FPR2 [3]),"Log EC50 (M), internalization, Mean (Hs_FPR2 [3]) [M]",agonist-induced internalization (words) (Mm_Fpr1),"Emax (%), internalization, Mean (Mm_Fpr2) [%]","Log EC50 (M), internalization, Mean (Mm_Fpr2) [M]",agonist-induced internalization (words) (Mm_Fpr2),EC50 (Hs_FPR2 [1]) [nM],Emax (Hs_FPR2 [1]) [%],Emax (Hs_FPR2 [2]) [%],Emax (Hs_FPR2 [3]) [%],Emax (Mm_Fpr2) [%],Emax (Hs_FPR1) [%],Emax (Mm_Fpr1) [%],further results
Cc1cccc(-c2oc(C)nc2C(=O)Nc2cnn(Cc3nc(C(C)(F)F)co3)n2)c1 [ACT-389949],−7.80,69.25,73.56,18,−7.74,only at 10 μM,95.31,full agonist,−7.975,only at 10 μM,118.5,−6.539,full agonist,–,–,–,–,–,–,–,"fold less potency at Mm_Fpr2, internalization (Mm_Fpr2; equipotent to WKYMVm at Hs_FPR2): 28 fold"
COc1cc(F)c([C@@H]2CNC(=O)[C@H]2NC(=O)Nc2ccccc2)c(F)c1 [BMS-986235],–,–,–,39.9,–,failed to show appreciable internalization; also recorded: unable to induce any measurable internalization,–,robust internalization,–,failed to show appreciable internalization; also recorded: unable to induce any measurable internalization,–,–,robust internalization,75.9,64.4,85.1,112,88,–,–,"EC50 (Hs_FPR2 [3]; [5]): 9.1e-07 M; times more potent at Mm_Fpr2 than Hs_FPR2, internalization (Mm_Fpr2): 9 times; EC50 (Mm_Fpr2; [5]): 1.03e-07 M"
CCCCOc1ccc(C(=O)NN2C(=O)c3ccccc3NC2c2ccc(OC)cc2)cc1 (stereo not shown) [QuinC1],−6.06,34.75,40.71,–,−5.82,partial agonists,81.29,partial agonists,−5.809,partial agonists,41.84,−7.106,partial agonists,–,–,–,–,–,–,–,"Emax (%), internalization, Mean (Mm_Fpr1; % of internalization to WKYMVm (1 mM in legend, 1 μM in text), Mm_Fpr1, 30 minutes, ND denotes no internalization measured): 66.27%; Log EC50 (M), internalization, Mean (Mm_Fpr1; Log EC50, HEK293 stably expressing FLAG-Mm_Fpr1, ligand 30 minutes, ND denotes no internalization measured): −6.120 M"
CSCC[C@H](NC(=O)[C@H](Cc1ccc(O)cc1)NC(=O)[C@H](CCCCN)NC(=O)[C@@H](N)Cc1c[nH]c2ccccc12)C(=O)N[C@H](C(=O)N[C@H](CCSC)C(N)=O)C(C)C [WKYMVm],–,–,–,–,–,–,–,–,–,–,–,–,–,–,100,102,97.5,102,106,108,–
"CSCC[C@H](NC=O)C(=O)N[C@@H](CC(C)C)C(=O)N[C@@H](Cc1ccccc1)C(=O)N[C@@H](CCCCN)C(=O)O [fMLFK, fMet-Leu-Phe-Lys] (For-MLFK-OH)",–,–,–,–,–,–,–,–,–,–,–,–,–,26900,80.7,92.7,99.9,81.6,79.3,179,EC50 (Hs_FPR2 [2]; read-out: Log EC50 (converted)): 36300 nM; EC50 (Hs_FPR1): 16.2 nM; EC50 (Hs_FPR2 [3]): 3.34e-05 M; EC50 (Mm_Fpr1): 6110 nM; EC50 (Mm_Fpr2): 1.16e-05 M
LESIFRSLLFRVM [MMK1],−7.17,–,–,–,−7.03,failed to show appreciable internalization,–,partial agonism,−7.216,failed to show appreciable internalization,–,–,unable to induce internalization,–,38.7,59.1,62.9,8.68,–,11.6,agonist-induced internalization (words) (Hs_FPR1; listed as MMK-1): unable to induce internalization; agonist-induced internalization (words) (Mm_Fpr1; listed as MMK-1): unable to induce internalization
